# Experimental data: US12565468B2, “Processes and intermediates for the preparations of Carboprost and Carboprost Tromethamine, and Carboprost Tromethamine prepared therefrom” (CHIROGATE INTERNATIONAL INC., priority 2021, dated 2026)
# Experiments:
# Type in all cases: physicochemical
# [1] = Hygroscopicity: water content by Karl Fischer titration after exposure to 99% RH at 25° C.
# Description: On the other hand, the hygroscopicity of the high melting point Carboprost Tromethamine crystal prepared from Example 10 (Method A) and the low melting point Carboprost Tromethamine crystal prepared from Example 10 (Method B) was measured. The samples were placed in glass vial with 99% RH at 25° C. for 3 hours, and the water content of the samples were measured by Karl Fischer titration, as shown in Table 6.
# [2] = Stability of Carboprost Tromethamine crystal at 80° C. (HPLC purity and impurities)
# Source text: (§1) The high melting point Carboprost Tromethamine Crystal is very stable at room temperature, even at higher temperature, so that the formation of degradation impurities can be effectively avoided.
# [3] = Stability of Carboprost Tromethamine crystal on storage at 25° C./60% RH and 5° C. (HPLC purity and impurities)
# Source text: as §1
smiles,measurement,setting,value
"CCCCC[C@](C)(O)/C=C/[C@@H]1[C@@H](C/C=C\CCCC(=O)O)[C@@H](O)C[C@H]1O [Example 10 (Method B), 2-amino-2-(hydroxymethyl)propane-1,3-diol; (Z)-7-((1R,2R,3R,5S)-3,5-dihydroxy-2-((S,E)-3-hydroxy-3-methyloct-1-en-1-yl)cyclopentyl)hept-5-enoate, reference compound]",Water Content (%),[1]; 25° C./99% RH/1 h,2.236%
same,Water Content (%),[1]; 25° C./99% RH/2 h,5.45%
same,Water Content (%),[1]; 25° C./99% RH/3 h,7.513%
same,Water Content (%),[1]; Original,0.3303%
"CCCCC[C@](C)(O)/C=C/[C@@H]1[C@@H](C/C=C\CCCC(=O)O)[C@@H](O)C[C@H]1O [Example 10 (Method A), 2-amino-2-(hydroxymethyl)propane-1,3-diol; (Z)-7-((1R,2R,3R,5S)-3,5-dihydroxy-2-((S,E)-3-hydroxy-3-methyloct-1-en-1-yl)cyclopentyl)hept-5-enoate]",15-epi,"[2]; 80° C., 1 days",0.20%
same,Purity,"[2]; 80° C., 1 days",99.79%
same,Total Impurities,"[2]; 80° C., 1 days",0.21%
same,15-epi,"[2]; 80° C., 3 days",0.21%
same,Purity,"[2]; 80° C., 3 days",99.78%
same,Total Impurities,"[2]; 80° C., 3 days",0.22%
same,15-epi,[2]; Control,0.21%
same,Purity,[2]; Control,99.79%
same,Total Impurities,[2]; Control,0.21%
same,Water Content (%),[1]; 25° C./99% RH/1 h,1.509%
same,Water Content (%),[1]; 25° C./99% RH/2 h,3.354%
same,Water Content (%),[1]; 25° C./99% RH/3 h,5.881%
same,Rate of water absorption (in words),"[1]; 99% RH at 25° C. for 3 hours, compared to the low melting point crystal",relatively low rate of water absorption
same,Water Content (%),[1]; Original,0.3657%
same,15-epi,"[3]; 5° C., 1 month",0.28%
same,Purity,"[3]; 5° C., 1 month",99.72%
same,Total Impurities,"[3]; 5° C., 1 month",0.28%
same,15-epi,"[3]; 5° C., 12 months",0.25%
same,Purity,"[3]; 5° C., 12 months",99.75%
same,Total Impurities,"[3]; 5° C., 12 months",0.25%
same,15-epi,"[3]; 5° C., 18 months",0.25%
same,Purity,"[3]; 5° C., 18 months",99.75%
same,Total Impurities,"[3]; 5° C., 18 months",0.25%
same,15(R)-epimer,"[3]; 25° C./60% RH, 1 month",0.27%
same,Purity,"[3]; 25° C./60% RH, 1 month",99.71%
same,Total Impurities,"[3]; 25° C./60% RH, 1 month",0.29%
same,15(R)-epimer,"[3]; 25° C./60% RH, 6 months",0.25%
same,Purity,"[3]; 25° C./60% RH, 6 months",99.75%
same,Total Impurities,"[3]; 25° C./60% RH, 6 months",0.25%
same,15(R)-epimer,[3]; Control,0.25%
same,Purity,[3]; Control,99.75%
same,Total Impurities,[3]; Control,0.25%
same,Stability (in words),"[3]; at room temperature, even at higher temperature",very stable
same,Stability (in words),"[3]; treated at 20° C. for 6 months, 5° C. for 18 months, and 80° C. for 3 days",very stable
same,Stability (in words),"[3]; treated at 20° C. for 6 months, PC for 18 months, and 80° C. for 3 days",stable
